Consider five molecules from PMC4434603 (Journal of biomolecular screening, 2011).

T1: His-RORα-LBD (Homo sapiens, UniProt P35398)
T1 sequence (P35398 with tags, fused parts or gaps): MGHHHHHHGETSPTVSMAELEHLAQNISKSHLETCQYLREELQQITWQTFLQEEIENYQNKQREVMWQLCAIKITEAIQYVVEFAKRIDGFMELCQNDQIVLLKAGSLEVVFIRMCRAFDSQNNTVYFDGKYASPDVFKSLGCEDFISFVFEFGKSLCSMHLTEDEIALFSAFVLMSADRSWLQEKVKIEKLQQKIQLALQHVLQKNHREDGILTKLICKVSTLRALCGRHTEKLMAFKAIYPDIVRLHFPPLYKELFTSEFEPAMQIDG

T2: Biotin-PGC-1α NR1 peptide (biotin on the N-terminus)
T2 peptide: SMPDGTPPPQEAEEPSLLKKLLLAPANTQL

B1: His-RORα-LBD (262–523) (domain or fragment)
chain: GETSPTVSMAELEHLAQNISKSHLETCQYLREELQQITWQTFLQEEIENYQNKQREVMWQLCAIKITEAIQYVVEFAKRIDGFMELCQNDQIVLLKAGSLEVVFIRMCRAFDSQNNTVYFDGKYASPDVFKSLGCEDFISFVFEFGKSLCSMHLTEDEIALFSAFVLMSADRSWLQEKVKIEKLQQKIQLALQHVLQKNHREDGILTKLICKVSTLRALCGRHTEKLMAFKAIYPDIVRLHFPPLYKELFTSEFEPAMQIDG

In the first test the target is T1, His-RORα-LBD. Briefly: HTS LOPAC AlphaScreen screen and compound response curves. Format: biochemical. As to conditions: CRC. On the technique in general: Bead proximity is the source of the signal in Alpha formats.
Take `CCCCCCC(C)(C)c1ccc([C@@H]2C[C@H](O)CC[C@H]2CCCO)c(O)c1` [C 1112]: the “Hill Slope” value is listed as 1.73.
Regarding `CC(=O)[C@H]1CC[C@H]2[C@@H]3CCC4=CC(=O)CC[C@]4(C)[C@H]3CC[C@]12C` [P 0130], the “Hill Slope” value is listed as 1.07.
On to `CC(=O)[C@H]1CCC2C3CC[C@H]4C[C@H](O)CC[C@]4(C)C3CC[C@@]21C` (stereo partly drawn) [P 8887], for which the “Hill Slope” value is given as 0.28.
Regarding `C[C@]12C=CC(=O)C=C1CC[C@@H]1C2=CC[C@]2(C)[C@@H](C(=O)CN3CCN(c4cc(N5CCCC5)nc(N5CCCC5)n4)CC3)CC[C@@H]12.O=C(O)/C=C\C(=O)O` [U 5882], the “Hill Slope” value was 1.79.

Still in this test, the particulars now being: read-out: Final EC50; CRC, 50 µM top, 3-fold dilutions, 10 points, triplicate.
Turning to `CCCCCCC(C)(C)c1ccc([C@@H]2C[C@H](O)CC[C@H]2CCCO)c(O)c1` [C 1112], the EC50 – broadly, the concentration giving half of the maximal effect – is 224 nM.
Take `CC(=O)[C@H]1CC[C@H]2[C@@H]3CCC4=CC(=O)CC[C@]4(C)[C@H]3CC[C@]12C` [P 0130]: the EC50 worked out at 833 nM.
Still for that read-out and setting: in the case of `CC(=O)[C@H]1CCC2C3CC[C@H]4C[C@H](O)CC[C@]4(C)C3CC[C@@]21C` (stereo partly drawn) [P 8887] it was 331 nM; in that of `C[C@]12C=CC(=O)C=C1CC[C@@H]1C2=CC[C@]2(C)[C@@H](C(=O)CN3CCN(c4cc(N5CCCC5)nc(N5CCCC5)n4)CC3)CC[C@@H]12.O=C(O)/C=C\C(=O)O` [U 5882], 393 nM.

In the next test the target is T2, Biotin-PGC-1α NR1 peptide. Description: AlphaScreen or HTRF.
Settings: not given
Take B1: the EC50 amounted to 36 nM.
